# According to publication PMC7575490 (Investigational New Drugs, 2020):
# Experiments:
# [1] = Part 2 three-period crossover pharmacokinetics / relative bioavailability of A, B, C; type: in vivo, human
# Procedure: This was a randomized, positive control, open, single-center study with a three-cycle crossover design in healthy Chinese subjects. […] The wash-out period was 7 days. The method employed for tablet administration was consistent with that in Part 1. […] After the suspension was comsumed by subjects,the container was rinsed with 40, 80, and 80 mL of water in turn and took them down.
# EGFR = tested on: EGFR; set-up: method as in PMID 27902470; conditions: previous pharmacodynamic study; read-out: IC50, EGFR inhibition; cited from earlier work
# ErbB2 = tested on: ErbB2; set-up: method as in PMID 27902470; conditions: previous pharmacodynamic study; read-out: IC50, ErbB2 inhibition; cited from earlier work
# [2] = cited from earlier work
# [3] = Part 1 single ascending dose pharmacokinetics in healthy Chinese subjects; conditions: for AUC0-t / AUC0-∞ / Cmax / MRT0-t / MRT0-∞ / V/F / t1/2 / λz / Tmax: analyte selatinib; for AUC0-t / AUC0-∞ / Cmax / MRT0-t / MRT0-∞ / V/F / t1/2 / λz: mean ± SD; for Tmax: median (min-max)
# Procedure: This was a single-center, randomized, double-blind, placebo-controlled, single ascending study involving healthy Chinese subjects. […] Investigators and subjects were blinded to the group allociations. Treatment identity was concealed by providing drug doses and placebo of identical appearance and in identical packageing. The starting dose was calculated according to the no observed adverse effect level (NOAEL) for animals.[[[25], [26]^] […] The starting dose should be 1/10 of the human NOAEL(i.e., starting dose was 50 or 72 mg). This dose was used as a threshold guide for dose escalations. To minimize risk while providing some inhibitory effects, 50 mg was recommended for use as the starting dose. Dose escalation was designed according to the modified-Fibonacci sequence. A total of 7 dose groups were included. […] Each group consisted of 50% males and females. In addition to the 500 mg group, 2 subjects in each group were administered a single dose of placebo, one for each gender. Only 2 subjects were initially enrolled in all dose groups. Follow-up subjects were enrolled on the premise that the drug was safely tolerated at the administration dose. When all subjects in the current dose group completed the trial and this dose was deemed as tolerable, the next dose group was initiated.
# Tablets were administered with 240 mL of tap water at ambient temperature. Consumption of additional water was not permitted within 1 h before and after drug administration. Light meals were served at 4 and 10 h after each dose, with identical standardized diets provided across all dosing periods.
# Blood samples were collected into heparinized vacutainer tubes and gently mixed. Thereafter,plasma was separated by centrifugation (3000 rpm at 4 °C for 10 min) within 1 h of sample collection and stored frozen at −80 °C prior to analysis.
# A P value<0.05 was considered to indicate statistical significance. […] Further, the logarithm of the dose and the regression coefficient and its 95%CI were calculated.
# [4] = Part 1, across single doses 50–500 mg
# [5] = Part 1, single 50 mg dose of selatinib (n = 4)
# [6] = Part 1, single 100 mg dose of selatinib (n = 10)
# [7] = Part 1, single 200 mg dose of selatinib (n = 10)
# [8] = Part 1, single 250 mg dose of selatinib (n = 8)
# [9] = Part 1, single 300 mg dose of selatinib (n = 10)
# [10] = Part 1, single 350 mg dose of selatinib (n = 6)
# [11] = Part 1, single 500 mg dose of selatinib (n = 4)
# [12] = Part 2, average bioequivalence, logarithmic transformation, single 500 mg dose, suspension B vs tablets A, analyte as labelled
# [13] = Part 2, single 500 mg dose of A (selatinib ditosilate tablets), n = 6, analyte as labelled, mean ± SD
# [14] = Part 2, single 500 mg dose of B (selatinib ditosilate dry suspension), n = 6, analyte as labelled, mean ± SD
compound,measurement,setting,value
"CS(=O)(=O)CCNCc1ccc(-c2ccc3ncnc(Nc4ccc(OCc5cccc(F)c5)c(Cl)c4)c3c2)o1 [lapatinib, reference compound]",λz,"[1]; Part 2, single 500 mg dose of C (lapatinib ditosylate tablets), n = 6, mean ± SD",5.70 ± 1.26 ×10^−2 /h
same,AUC0-t,"[1]; male, human, in vivo, 500 mg",5520 ± 2190 ng·h/mL
same,AUC(0-inf),"[1]; male, human, in vivo, 500 mg",5540 ± 2200 ng·h/mL
same,Cmax,"[1]; male, human, in vivo, 500 mg",400 ± 144 ng/mL
same,MRT inf,"[1]; male, human, in vivo, 500 mg",15.6 ± 2.76 h
same,Tmax,"[1]; male, human, in vivo, 500 mg",4.0 (2.0–5.0) h
same,half-life,"[1]; male, human, plasma, oral, 500 mg",12.7 ± 3.05 h
same,aqueous solubility,[2],7 µg/mL
C[S+]([O-])CCNCc1ccc(-c2ccc3ncnc(Nc4ccc(OCc5cccc(F)c5)c(Cl)c4)c3c2)o1 (stereo not shown) [selatinib],mean selatinib peak plasma concentration,[3]; [4],69.4 to 494 ng/mL
same,median peak time,[3]; [4],3.5 to 4.5 h
same,AUC0-t,[3]; [5],969 ± 161 ng·h/mL
same,AUC0-∞,[3]; [5],983 ± 165 ng·h/mL
same,Cmax,[3]; [5],69.4 ± 18.5 ng/mL
same,MRT0-t,[3]; [5],15.2 ± 3.1 h
same,MRT0-∞,[3]; [5],16.4 ± 3.5 h
same,V/F,[3]; [5],1193.3 ± 321.8 L
same,t1/2,[3]; [5],15.8 ± 2.98 h
same,λz,[3]; [5],4.49 ± 0.788 ×10^−2 1/h
same,Tmax,[3]; [5],4.0 (3.0–6.0) h
same,AUC0-t,[3]; [6],2664 ± 1039 ng·h/mL
same,AUC0-∞,[3]; [6],2688 ± 1058 ng·h/mL
same,Cmax,[3]; [6],178 ± 48.8 ng/mL
same,MRT0-t,[3]; [6],15.9 ± 2.4 h
same,MRT0-∞,[3]; [6],16.7 ± 2.8 h
same,V/F,[3]; [6],853.2 ± 279.8 L
same,t1/2,[3]; [6],14.3 ± 2.58 h
same,λz,[3]; [6],4.98 ± 0.917 ×10^−2 1/h
same,Tmax,[3]; [6],4.0 (4.0–6.0) h
same,AUC0-t,[3]; [7],3708 ± 1465 ng·h/mL
same,AUC0-∞,[3]; [7],3735 ± 1480 ng·h/mL
same,MRT0-t,[3]; [7],16.4 ± 1.7 h
same,MRT0-∞,[3]; [7],17.1 ± 1.9 h
same,V/F,[3]; [7],1247.0 ± 522.4 L
same,t1/2,[3]; [7],14.0 ± 1.79 h
same,λz,[3]; [7],5.01 ± 0.651 ×10^−2 1/h
same,Tmax,[3]; [7],4.5 (4.0–8.0) h
same,AUC0-t,[3]; [8],5319 ± 3248 ng·h/mL
same,AUC0-∞,[3]; [8],5368 ± 3274 ng·h/mL
same,Cmax,[3]; [8],329 ± 211 ng/mL
same,MRT0-t,[3]; [8],17.1 ± 1.5 h
same,MRT0-∞,[3]; [8],18.0 ± 1.8 h
same,V/F,[3]; [8],1393.7 ± 861.8 L
same,t1/2,[3]; [8],15.3 ± 1.67 h
same,λz,[3]; [8],4.58 ± 0.495 ×10^−2 1/h
same,Tmax,[3]; [8],4.0 (4.0–5.0) h
same,AUC0-t,[3]; [9],5904 ± 2428 ng·h/mL
same,AUC0-∞,[3]; [9],5958 ± 2461 ng·h/mL
same,Cmax,[3]; [9],352 ± 147 ng/mL
same,MRT0-t,[3]; [9],17.4 ± 2.3 h
same,MRT0-∞,[3]; [9],18.3 ± 2.6 h
same,V/F,[3]; [9],1380.6 ± 1006.1 L
same,t1/2,[3]; [9],15.1 ± 1.09 h
same,λz,[3]; [9],4.60 ± 0.334 ×10^−2 1/h
same,Tmax,[3]; [9],4.5 (4.0–6.0) h
same,AUC0-t,[3]; [10],7072 ± 2001 ng·h/mL
same,AUC0-∞,[3]; [10],7115 ± 1995 ng·h/mL
same,Cmax,[3]; [10],494 ± 156 ng/mL
same,MRT0-t,[3]; [10],16.0 ± 2.6 h
same,MRT0-∞,[3]; [10],16.7 ± 3.0 h
same,V/F,[3]; [10],1059.1 ± 425.1 L
same,t1/2,[3]; [10],13.8 ± 2.19 h
same,λz,[3]; [10],5.14 ± 0.765 ×10^−2 1/h
same,Tmax,[3]; [10],4.5 (2.0–5.0) h
same,AUC0-t,[3]; [11],7142 ± 2463 ng·h/mL
same,AUC0-∞,[3]; [11],7191 ± 2482 ng·h/mL
same,Cmax,[3]; [11],486 ± 144 ng/mL
same,MRT0-t,[3]; [11],15.5 ± 0.5 h
same,MRT0-∞,[3]; [11],16.2 ± 0.5 h
same,V/F,[3]; [11],1650.8 ± 652.2 L
same,t1/2,[3]; [11],14.8 ± 0.152 h
same,λz,[3]; [11],4.68 ± 0.0482 ×10^−2 1/h
same,Tmax,[3]; [11],3.5 (2.0–5.0) h
same,linearity of pharmacokinetics,[3]; dose range of 50–500 mg,conformed with linear pharmacokinetics
same,B/A% of AUC0-t,[1]; [12],101.06%
same,B/A% of AUC0-∞,[1]; [12],101.09%
same,B/A% of Cmax,[1]; [12],94.53%
same,AUC0-t,[1]; [13],9280 ± 3800 ng·h/mL
same,AUC0-∞,[1]; [13],9400 ± 3910 ng·h/mL
same,Cmax,[1]; [13],601 ± 242 ng/mL
same,MRT0-∞,[1]; [13],19.2 ± 3.16 h
same,t1/2,[1]; [13],15.6 ± 2.47 h
same,λz,[1]; [13],4.52 ± 0.682 ×10^−2 /h
same,Tmax,"[1]; Part 2, single 500 mg dose of A (selatinib ditosilate tablets), n = 6, analyte as labelled, median (min-max)",5.0 (4.0–6.0) h
same,V/F,"[1]; Part 2, single 500 mg dose of A (selatinib ditosilate tablets), n = 6, mean ± SD",1370 ± 586 L
same,AUC0-t,[1]; [14],8780 ± 1350 ng·h/mL
same,AUC0-∞,[1]; [14],8890 ± 1410 ng·h/mL
same,Cmax,[1]; [14],556 ± 191 ng/mL
same,MRT0-∞,[1]; [14],18.9 ± 2.87 h
same,t1/2,[1]; [14],16.2 ± 1.87 h
same,λz,[1]; [14],4.32 ± 0.453 ×10^−2 /h
same,Tmax,"[1]; Part 2, single 500 mg dose of B (selatinib ditosilate dry suspension), n = 6, analyte as labelled, median (min-max)",4.5 (3.0–6.0) h
same,V/F,"[1]; Part 2, single 500 mg dose of B (selatinib ditosilate dry suspension), n = 6, mean ± SD",1330 ± 192 L
